Reference: ChEMBL document CHEMBL3734721 (J Med Chem, 2015)
pEC50, pIC50: −log10 of the molar value.

Legend:
Mu-type opioid receptor = Mu-type opioid receptor (Homo sapiens, UniProt P35372); test: Agonist activity at human wild-type opioid-mu receptor expressed in CHO-K1 cells assessed as cAMP level by HTRF assay; assay type: functional, cell-based
[1] = Ratio of drug level in brain to plasma in Swiss mouse at 5 mg/kg, sc; assay type: ADME, organism-based; conditions: read-out: BPR
[2] = target: T1, Muscarinic acetylcholine receptor M2 (Homo sapiens, UniProt P08172); test: Antagonist activity at human wild-type M2 receptor expressed in CHO-K1 cells assessed as acetylcholine-induced cAMP by HTRF assay; assay type: functional, cell-based
T1 sequence (P08172 whole entry): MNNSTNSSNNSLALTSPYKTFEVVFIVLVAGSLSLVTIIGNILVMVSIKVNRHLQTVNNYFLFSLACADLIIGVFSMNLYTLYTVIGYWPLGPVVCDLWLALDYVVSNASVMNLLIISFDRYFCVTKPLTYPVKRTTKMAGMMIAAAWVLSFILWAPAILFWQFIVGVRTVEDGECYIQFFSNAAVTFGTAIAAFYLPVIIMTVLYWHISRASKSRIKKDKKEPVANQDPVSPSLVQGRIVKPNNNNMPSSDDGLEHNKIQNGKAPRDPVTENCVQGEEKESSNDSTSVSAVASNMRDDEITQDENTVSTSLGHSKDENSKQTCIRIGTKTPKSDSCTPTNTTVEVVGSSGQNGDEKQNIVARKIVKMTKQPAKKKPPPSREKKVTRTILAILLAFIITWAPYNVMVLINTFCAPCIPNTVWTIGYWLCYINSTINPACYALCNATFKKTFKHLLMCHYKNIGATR

Cytochrome P450 1A2 = target: T2, Cytochrome P450 1A2 (Homo sapiens, UniProt P05177); test: Inhibition of human CYP1A2 by LC-MS analysis; assay type: ADME
T2 sequence (P05177 whole entry): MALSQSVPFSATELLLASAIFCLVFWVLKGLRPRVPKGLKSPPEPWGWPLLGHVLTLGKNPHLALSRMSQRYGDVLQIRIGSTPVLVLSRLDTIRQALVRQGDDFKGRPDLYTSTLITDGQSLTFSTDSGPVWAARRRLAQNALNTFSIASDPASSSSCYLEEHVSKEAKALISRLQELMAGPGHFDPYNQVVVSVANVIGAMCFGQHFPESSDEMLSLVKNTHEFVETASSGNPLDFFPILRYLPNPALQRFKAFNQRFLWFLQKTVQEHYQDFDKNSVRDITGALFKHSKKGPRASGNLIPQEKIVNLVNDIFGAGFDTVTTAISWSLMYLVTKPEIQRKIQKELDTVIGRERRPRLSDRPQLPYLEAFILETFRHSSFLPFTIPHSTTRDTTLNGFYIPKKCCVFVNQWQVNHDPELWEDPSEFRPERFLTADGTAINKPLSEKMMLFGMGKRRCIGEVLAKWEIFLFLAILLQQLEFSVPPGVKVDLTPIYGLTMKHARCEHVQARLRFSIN

[3] = target: Beta-1 adrenergic receptor (Homo sapiens, UniProt P08588); test: Antagonist activity at human beta1 receptor expressed in CHO-K1 cells assessed as isoproterenol-induced cAMP level by HTRF assay; assay type: functional, cell-based
[4] = target: T3, Alpha-2C adrenergic receptor (Homo sapiens, UniProt P18825); test: Agonist activity at human wild-type alpha 2C receptor expressed in CHO-K1 cells assessed as cAMP level by HTRF assay; assay type: functional, cell-based
T3 sequence (P18825 whole entry): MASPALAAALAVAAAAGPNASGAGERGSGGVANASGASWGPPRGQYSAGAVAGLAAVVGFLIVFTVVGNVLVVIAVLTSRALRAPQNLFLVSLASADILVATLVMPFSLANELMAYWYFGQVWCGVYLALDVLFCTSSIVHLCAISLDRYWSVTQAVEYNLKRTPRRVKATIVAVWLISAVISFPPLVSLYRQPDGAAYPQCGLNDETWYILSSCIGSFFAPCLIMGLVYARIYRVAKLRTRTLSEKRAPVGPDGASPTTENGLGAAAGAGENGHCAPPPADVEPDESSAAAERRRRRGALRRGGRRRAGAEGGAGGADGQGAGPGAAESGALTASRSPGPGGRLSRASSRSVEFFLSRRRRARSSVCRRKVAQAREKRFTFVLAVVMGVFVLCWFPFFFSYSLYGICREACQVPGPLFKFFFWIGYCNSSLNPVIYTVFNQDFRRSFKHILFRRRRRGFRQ

[5] = target: T4, Muscarinic acetylcholine receptor M1 (Homo sapiens, UniProt P11229); test: Antagonist activity at human wild-type M1 receptor expressed in CHO-K1 cells assessed as acetylcholine-induced calcium by FDSS assay; assay type: functional, cell-based
T4 sequence (P11229 whole entry): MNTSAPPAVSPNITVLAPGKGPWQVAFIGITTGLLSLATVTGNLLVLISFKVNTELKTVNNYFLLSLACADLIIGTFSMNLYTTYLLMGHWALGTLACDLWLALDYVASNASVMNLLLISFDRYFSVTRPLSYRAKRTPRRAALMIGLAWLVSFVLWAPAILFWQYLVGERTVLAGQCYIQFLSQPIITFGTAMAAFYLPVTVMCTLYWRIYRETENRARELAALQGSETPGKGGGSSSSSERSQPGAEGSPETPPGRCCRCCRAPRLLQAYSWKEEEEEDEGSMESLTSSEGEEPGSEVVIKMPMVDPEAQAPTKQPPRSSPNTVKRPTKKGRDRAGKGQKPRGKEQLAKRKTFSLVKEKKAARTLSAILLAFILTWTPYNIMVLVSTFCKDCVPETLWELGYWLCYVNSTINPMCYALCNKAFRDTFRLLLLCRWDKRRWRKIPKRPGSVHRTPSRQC

[6] = Fraction unbound in human plasma at 5 uM after 4.5 hrs by LC-MS/MS analysis; assay type: ADME, cell-free
[7] = target: T3, Alpha-2C adrenergic receptor; test: Antagonist activity at human wild-type alpha 2C receptor expressed in CHO-K1 cells assessed as epinephrine-induced cAMP by HTRF assay; assay type: functional, cell-based
[8] = target: Kappa-type opioid receptor (Homo sapiens, UniProt P41145); test: Agonist activity at human wild-type opioid-kappa 1 receptor expressed in CHO-K1 cells assessed as cAMP level by HTRF assay; assay type: functional, cell-based
D(2) dopamine receptor = D(2) dopamine receptor (Homo sapiens, UniProt P14416); test: Antagonist activity at human wild-type D2 receptor expressed in CHO-K1 cells assessed as dopamine-induced cAMP by HTRF assay; assay type: functional, cell-based
[9] = target: 5-hydroxytryptamine receptor 6 (Homo sapiens, UniProt P50406); test: Antagonist activity at human 5-HT6 receptor expressed in 1321N1 cells assessed as seretonin-induced cAMP by HTRF assay; assay type: functional, cell-based
Sequence of 5-hydroxytryptamine receptor 6 (P50406 whole entry): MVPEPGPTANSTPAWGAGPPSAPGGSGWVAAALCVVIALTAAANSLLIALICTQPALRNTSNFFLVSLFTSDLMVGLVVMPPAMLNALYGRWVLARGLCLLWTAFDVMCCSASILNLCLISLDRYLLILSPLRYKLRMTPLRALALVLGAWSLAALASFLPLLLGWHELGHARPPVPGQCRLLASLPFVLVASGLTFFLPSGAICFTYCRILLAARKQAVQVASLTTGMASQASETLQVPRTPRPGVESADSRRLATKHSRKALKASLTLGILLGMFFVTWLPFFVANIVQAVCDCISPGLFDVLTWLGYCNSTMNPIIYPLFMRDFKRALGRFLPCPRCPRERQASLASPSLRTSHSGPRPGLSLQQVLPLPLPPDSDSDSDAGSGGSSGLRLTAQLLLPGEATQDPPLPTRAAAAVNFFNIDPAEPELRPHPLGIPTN

Sequence of Mu-type opioid receptor (P35372 whole entry): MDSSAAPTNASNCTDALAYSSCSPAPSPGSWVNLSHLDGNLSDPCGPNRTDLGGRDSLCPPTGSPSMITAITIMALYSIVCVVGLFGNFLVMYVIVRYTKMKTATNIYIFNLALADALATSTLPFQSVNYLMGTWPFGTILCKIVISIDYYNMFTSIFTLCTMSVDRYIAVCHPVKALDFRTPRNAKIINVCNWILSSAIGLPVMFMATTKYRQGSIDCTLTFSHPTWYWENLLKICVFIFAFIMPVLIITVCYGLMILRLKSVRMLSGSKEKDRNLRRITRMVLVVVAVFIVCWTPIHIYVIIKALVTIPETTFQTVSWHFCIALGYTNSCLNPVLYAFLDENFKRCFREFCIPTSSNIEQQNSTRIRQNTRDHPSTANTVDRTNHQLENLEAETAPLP
Sequence of Kappa-type opioid receptor (P41145 whole entry): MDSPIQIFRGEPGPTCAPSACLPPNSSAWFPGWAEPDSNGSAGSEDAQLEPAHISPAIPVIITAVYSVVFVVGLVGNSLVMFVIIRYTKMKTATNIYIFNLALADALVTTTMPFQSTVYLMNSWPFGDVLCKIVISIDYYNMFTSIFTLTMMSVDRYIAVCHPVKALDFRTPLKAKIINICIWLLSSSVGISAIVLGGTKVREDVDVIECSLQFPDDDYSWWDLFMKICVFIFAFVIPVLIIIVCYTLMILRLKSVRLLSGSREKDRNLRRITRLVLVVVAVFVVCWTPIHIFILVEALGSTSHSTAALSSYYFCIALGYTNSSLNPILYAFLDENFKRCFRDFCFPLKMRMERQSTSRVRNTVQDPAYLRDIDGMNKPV
Sequence of D(2) dopamine receptor (P14416 whole entry): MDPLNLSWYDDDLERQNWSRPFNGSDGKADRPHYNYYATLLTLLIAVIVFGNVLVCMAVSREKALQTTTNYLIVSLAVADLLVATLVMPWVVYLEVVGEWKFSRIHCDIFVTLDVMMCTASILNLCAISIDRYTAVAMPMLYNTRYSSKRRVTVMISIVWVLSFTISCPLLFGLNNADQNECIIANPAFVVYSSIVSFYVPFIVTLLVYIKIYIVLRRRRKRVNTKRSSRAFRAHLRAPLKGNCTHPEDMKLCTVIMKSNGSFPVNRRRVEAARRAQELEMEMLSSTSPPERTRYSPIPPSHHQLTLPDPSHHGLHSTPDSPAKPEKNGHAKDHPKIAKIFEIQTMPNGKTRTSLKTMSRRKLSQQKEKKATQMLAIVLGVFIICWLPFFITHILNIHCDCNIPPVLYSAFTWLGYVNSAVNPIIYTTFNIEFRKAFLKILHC
Sequence of Beta-1 adrenergic receptor (P08588 whole entry): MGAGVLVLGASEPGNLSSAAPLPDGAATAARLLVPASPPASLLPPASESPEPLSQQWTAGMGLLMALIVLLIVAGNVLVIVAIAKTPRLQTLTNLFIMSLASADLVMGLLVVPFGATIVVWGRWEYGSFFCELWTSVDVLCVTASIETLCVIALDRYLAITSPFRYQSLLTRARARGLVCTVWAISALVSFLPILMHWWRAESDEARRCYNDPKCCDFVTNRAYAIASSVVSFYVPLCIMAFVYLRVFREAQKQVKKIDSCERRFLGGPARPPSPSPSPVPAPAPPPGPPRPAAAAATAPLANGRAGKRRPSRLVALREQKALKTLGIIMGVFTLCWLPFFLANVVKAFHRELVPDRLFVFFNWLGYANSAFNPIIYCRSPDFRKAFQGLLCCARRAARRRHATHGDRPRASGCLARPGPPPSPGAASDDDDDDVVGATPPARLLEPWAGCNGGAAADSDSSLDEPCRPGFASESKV

pEC50 (Mu-type opioid receptor) | Kp [1] | pIC50 [2] | pIC50 (Cytochrome P450 1A2) | pIC50 [3] | pEC50 [4] | pIC50 [5] | fraction unbound at 4.5 h, 5 µM [6] | pIC50 [7] | pEC50 [8] | pIC50 (D(2) dopamine receptor) | pIC50 [9] | Structure (SMILES)
< 5.30 | 19 | < 5.30 | < 5.00 | 6.70 | < 5.30 | < 5.30 | 0.367 | < 5.30 | < 5.30 | < 5.30 | < 5.30 | CB1C=Cc2c(cccc2OCC(O)CN(C)C)N1 (centres undefined)
< 5.30 | 13 | < 5.30 | 5.50 | 6.20 | < 5.30 | < 5.30 | 0.179 | < 5.30 | < 5.30 | < 5.30 | < 5.30 | CB1C=Cc2cccc(OCC(O)CNC(C)C)c2N1 (centres undefined)
